Structures can show the parent of a compound that is named as a salt. Where only a bound is given, the exact number is not on record here.

One series is described as follows: in vitro. The conditions noted are these: rat, gh3-tre-luc cells, AC50 (uM) modified / 1000.
`CC(C)(O)C(=O)c1ccc(OCCO)cc1` [2-Hydroxy-1-[4-(2-hydroxyethoxy)phenyl]-2-methylpropan-1-one]: the CC50 – broadly, the concentration at which the toxic effect on the cells reaches its halfway point – at 24 h is above 90 µM.

`CC(C)(O)C(=O)c1ccccc1` [2-Hydroxy-2-methylpropiophenone] returned a CC50 at 24 h above 90 µM.

`Cc1cccc(C(=O)O)c1O` [2-Hydroxy-3-methylbenzoic acid]: the CC50 at 24 h is above 50 µM.

`COc1ccc(C(=O)c2ccccc2)c(O)c1` [2-Hydroxy-4-methoxybenzophenone] displayed a CC50 at 24 h above 50 µM.

Compound `Cc1ccc(O)c(C(=O)c2ccccc2)c1` [2-Hydroxy-5-methylbenzophenone] showed a CC50 at 24 h above 90 µM.

Take `CC(=O)c1ccccc1O` [2-Hydroxyacetophenone]: the CC50 at 24 h is above 90 µM.

`O=C1c2ccccc2C(=O)c2cc(O)ccc21` [2-Hydroxyanthraquinone] came in with a 50% cytotoxic concentration (CC50) at 24 h above 90 µM.

`N#Cc1ccccc1O` [2-Hydroxybenzonitrile] returned a CC50 at 24 h above 90 µM.

Compound `O=C(c1ccccc1)c1ccccc1O` [2-Hydroxybenzophenone] showed a CC50 at 24 h above 90 µM.

Compound `C=C(C)C(=O)OCCO` [2-Hydroxyethyl methacrylate] returned a CC50 at 24 h above 90 µM.

Turning to `CCCCCCCCCCCCCCCCCC(=O)OCCO` [2-Hydroxyethyl octadecanoate], the CC50 at 24 h is above 50 µM.

`CCCCCCCCSCCO` [2-Hydroxyethyl octyl sulfide]: the CC50 at 24 h is above 90 µM.

Consider `O=C(OCCO)c1ccccc1O` [2-Hydroxyethyl salicylate], for which the CC50 at 24 h is above 50 µM.

Take `NCCO` [2-Hydroxyethylammonium formate]: the CC50 at 24 h was above 90 µM.

`Oc1ccc2c(c1)Cc1ccccc1-2` [2-Hydroxyfluorene] came in with a 50% cytotoxic concentration (CC50) at 24 h of 77.9 µM.

`CC(C)(O)C(=O)O` [2-Hydroxyisobutyric acid] showed a CC50 at 24 h above 90 µM.

`C=C(C)C(=O)OCC(C)O` (centres unmarked) [2-Hydroxypropyl 2-methylacrylate] had a CC50 at 24 h above 90 µM.

For `ICCc1ccccc1` [2-Iodoethylbenzene], the CC50 at 24 h was above 90 µM.

`O=C(O)CNC(=O)c1ccccc1I` [2-Iodohippuric acid] gave a CC50 at 24 h above 50 µM.

In the case of `CC(C)OCCO` [2-Isopropoxyethanol], the CC50 at 24 h is above 90 µM.

`CC(C)Oc1ccccc1O` [2-Isopropoxyphenol] showed a CC50 at 24 h above 90 µM.

`Cc1cc(=O)nc(C(C)C)[nH]1` [2-Isopropyl-6-methyl-4-pyrimidone] displayed a CC50 at 24 h above 90 µM.

As for `CC(C)c1ccccc1O` [2-Isopropylphenol], the CC50 at 24 h is above 90 µM.

As for `CC(C)CC(=O)C1C(=O)c2ccccc2C1=O` [2-Isovaleryl-1,3-indanedione], the half-maximal cytotoxic concentration (CC50) at 24 h is above 90 µM.

`Sc1nc2ccccc2s1` [2-Mercaptobenzothiazole] came in with a CC50 at 24 h above 50 µM.

Take `COc1cc2c(cc1N)oc1ccccc12` [2-Methoxy-3-aminodibenzofuran]: the CC50 at 24 h was above 90 µM.

Turning to `COc1cc(C)ccc1C(C)C` [2-Methoxy-4-methyl-1-(propan-2-yl)benzene], the CC50 at 24 h was above 90 µM.

`COc1cc(C)ccc1O` [2-Methoxy-4-methylphenol]: the CC50 at 24 h is above 90 µM.

On to `COc1cc([N+](=O)[O-])ccc1N` [2-Methoxy-4-nitroaniline], for which the CC50 at 24 h was 40.9 µM.

As to `CCCc1ccc(O)c(OC)c1` [2-Methoxy-4-propylphenol], the CC50 at 24 h is above 90 µM.

Compound `COc1ccc(C)cc1N` [2-Methoxy-5-methylaniline] registered a cytotoxic concentration (CC50) at 24 h above 90 µM.

`COc1ccc([N+](=O)[O-])cc1N` [2-Methoxy-5-nitroaniline] gave a CC50 at 24 h above 90 µM.

As to `COc1ccccc1N` [2-Methoxyaniline hydrochloride], the CC50 at 24 h was above 90 µM.

In the case of `COc1ccccc1C=CC=O` [2-Methoxycinnamaldehyde], the CC50 at 24 h stood at 77.5 µM.

In turn, `COCCO` [2-Methoxyethanol] gave a cytotoxic concentration (CC50) at 24 h above 90 µM.

Take `COCCOC(=O)CC#N` [2-Methoxyethyl cyanoacetate]: the CC50 at 24 h was above 90 µM.

For `COc1ccccc1O` [2-Methoxyphenol], the CC50 at 24 h is above 90 µM.

Turning to `Cc1c(O)cccc1O` [2-Methyl-1,3-benzenediol], the CC50 at 24 h is above 90 µM.

`CCC(C)CO` (centres unmarked) [2-Methyl-1-butanol]: the CC50 at 24 h is above 100 µM.

In turn, `Cc1ccc2c(c1[N+](=O)[O-])C(=O)c1ccccc1C2=O` [2-Methyl-1-nitroanthraquinone] showed a CC50 at 24 h of 38.7 µM.

`CCCC(C)CO` (centres unmarked) [2-Methyl-1-pentanol]: the CC50 at 24 h was above 90 µM.

`CC(C)(O)Cc1ccccc1` [2-Methyl-1-phenylpropan-2-ol] registered a CC50 at 24 h above 90 µM.

Regarding `CC(C)CO` [2-Methyl-1-propanol], the CC50 at 24 h was above 90 µM.

`CC(O)CC(C)(C)O` (centres unmarked) [2-Methyl-2,4-pentanediol] had a CC50 at 24 h above 90 µM.

`C/C=C(\C)C=O` [2-Methyl-2-butenal] yielded a CC50 at 24 h above 90 µM.

`CC=C(C)C#N` [2-Methyl-2-butenenitrile]: the CC50 at 24 h was above 90 µM.

`CC(CO)(CO)[N+](=O)[O-]` [2-Methyl-2-nitro-1,3-propanediol]: the CC50 at 24 h is above 90 µM.

Turning to `CC(C)(CO)[N+](=O)[O-]` [2-Methyl-2-nitro-1-propanol], the CC50 at 24 h is above 90 µM.

`CC(C)(C)S` [2-Methyl-2-propanethiol]: the CC50 at 24 h was above 90 µM.

`Cc1occc1S` [2-Methyl-3-furanthiol] came in with a CC50 at 24 h above 90 µM.

The compound `Cc1c(N)cccc1[N+](=O)[O-]` [2-Methyl-3-nitroaniline] yielded a CC50 at 24 h above 90 µM.

The compound `Cc1c(C(=O)O)cccc1[N+](=O)[O-]` [2-Methyl-3-nitrobenzoic acid] displayed a CC50 at 24 h above 90 µM.

The compound `COc1nc(C)nc(N)n1` [2-Methyl-4-amino-6-methoxy-s-triazine] gave a CC50 at 24 h above 90 µM.

Compound `Cn1sccc1=O` [2-Methyl-4-isothiazolin-3-one hydrochloride] showed a CC50 at 24 h of 30.8 µM.

Turning to `Cc1cc([N+](=O)[O-])ccc1N` [2-Methyl-4-nitroaniline], the CC50 at 24 h is above 90 µM.

On to `CC(C)(O)CCc1ccccc1` [2-Methyl-4-phenylbutan-2-ol], for which the CC50 at 24 h is above 90 µM.

With `CCCC1CCOC(C)S1` (centres unmarked) [2-Methyl-4-propyl-1,3-oxathiane], the CC50 at 24 h is above 90 µM.

With `Cc1nc2ccccc2c(=O)o1` [2-Methyl-4H,3,1-benzoxazin-4-one], the CC50 at 24 h is above 90 µM.

Turning to `Cc1ccc([N+](=O)[O-])cc1N` [2-Methyl-5-nitroaniline], the CC50 at 24 h is above 90 µM.

In turn, `Cc1ccc([N+](=O)[O-])cc1S(=O)(=O)O` [2-Methyl-5-nitrobenzenesulfonic acid] registered a CC50 at 24 h above 90 µM.

For the compound `Cc1cccc([N+](=O)[O-])c1C(=O)O` [2-Methyl-6-nitrobenzoic acid], the CC50 at 24 h is above 90 µM.

In turn, `Cc1ccc2c(c1)C(=O)c1ccccc1C2=O` [2-Methylanthraquinone] displayed a CC50 at 24 h above 90 µM.

Turning to `Cc1ccccc1C(N)=O` [2-Methylbenzamide], the CC50 at 24 h is above 90 µM.

In turn, `Cc1ccccc1S` [2-Methylbenzenethiol] returned a CC50 at 24 h above 70 µM.

Take `Cc1ccccc1C(=O)O` [2-Methylbenzoic acid]: the CC50 at 24 h is above 90 µM.

In the case of `Cc1nc2ccccc2s1` [2-Methylbenzothiazole], the CC50 at 24 h was above 90 µM.

In turn, `CCC(C)C=O` (centres unmarked) [2-Methylbutanal] showed a CC50 at 24 h above 90 µM.

In the case of `CCC(C)COC(C)=O` (centres unmarked) [2-Methylbutyl acetate], the CC50 at 24 h was above 90 µM.

Take `CCC(C)COC(=O)CC(C)C` (centres unmarked) [2-Methylbutyl isovalerate]: the CC50 at 24 h is above 90 µM.

`C/C(C=O)=C\c1ccccc1` [2-Methylcinnamic aldehyde] displayed a CC50 at 24 h above 90 µM.

Turning to `CC1OCCC1=O` (centres unmarked) [2-Methyldihydrofuran-3(2H)-one], the CC50 at 24 h was above 90 µM.

Turning to `C=C(C#N)CCC#N` [2-Methylenepentanedinitrile], the CC50 at 24 h was above 90 µM.

With `Cc1ccco1` [2-Methylfuran], the CC50 at 24 h is above 90 µM.

`CCCCC(C)C(=O)O` (centres unmarked) [2-Methylhexanoic acid] registered a CC50 at 24 h above 90 µM.

The same series, now with this note: rat, gh3-tre-luc cells, AC50 (uM) modified / 1000, Tox21_110001=Tox21_200094; viability, 1 nM T3 present, 24 h.
On to `C#CC(C)(C)O` [2-Methyl-3-butyn-2-ol], for which the CC50 at 24 h was above 90 µM.

The same series, now with this note: rat, gh3-tre-luc cells, AC50 (uM) modified / 1000, Tox21_110001=Tox21_201256; viability, 1 nM T3 present, 24 h.
Compound `Cc1ccccc1N` [2-Methylaniline] showed a CC50 at 24 h above 90 µM.

Still in this series, the particulars now being: rat, gh3-tre-luc cells, AC50 (uM) modified / 1000, Tox21_110001=Tox21_201430; viability, 1 nM T3 present, 24 h.
In turn, `C=CC(=O)OCCO` [2-Hydroxyethyl acrylate] registered a CC50 at 24 h above 90 µM.

The series is the same for the next values; noted with them: rat, gh3-tre-luc cells, AC50 (uM) modified / 1000, Tox21_110001=Tox21_201490; viability, 1 nM T3 present, 24 h.
Turning to `CC(C)(O)C#N` [2-Hydroxy-2-methylpropanenitrile], the CC50 at 24 h was above 100 µM.

The same series, now with this note: rat, gh3-tre-luc cells, AC50 (uM) modified / 1000, Tox21_110001=Tox21_201828; viability, 1 nM T3 present, 24 h.
Take `Sc1nc2ccccc2[nH]1` [2-Mercaptobenzimidazole]: the CC50 at 24 h is above 90 µM.

The series is the same for the next values; noted with them: rat, gh3-tre-luc cells, AC50 (uM) modified / 1000, Tox21_110001=Tox21_301204; viability, 1 nM T3 present, 24 h.
The compound `NNCCO` [2-Hydroxyethylhydrazine] gave a CC50 at 24 h above 90 µM.

The same series, now with this note: rat, gh3-tre-luc cells, AC50 (uM) modified / 1000, Tox21_110001=Tox21_301664; viability, 1 nM T3 present, 24 h.
`CSc1ccc(C(=O)C(C)(C)N2CCOCC2)cc1` [2-Methyl-4'-(methylthio)-2-morpholinopropiophenone] gave a CC50 at 24 h above 90 µM.

The series is the same for the next values; noted with them: rat, gh3-tre-luc cells, AC50 (uM) modified / 1000, Tox21_110001=Tox21_302181; viability, 1 nM T3 present, 24 h.
In turn, `OCCSSCCO` [2-Hydroxyethyl disulfide] gave a CC50 at 24 h above 90 µM.

Still in this series, the particulars now being: rat, gh3-tre-luc cells, AC50 (uM) modified / 1000, Tox21_110001=Tox21_303256; viability, 1 nM T3 present, 24 h.
The compound `CC(C)(O)C#N` [2-Hydroxy-2-methylpropanenitrile] showed a CC50 at 24 h above 90 µM.
